Experimental findings from US11167006B2 (Shanghai Tianci Life Science Development Co., Ltd., priority 2016, dated 2021) are described below.

Square brackets hold non-standard residues; d marks the D form. Peptide text beside a SMILES is read from it. NMeF = CN[C@@H](Cc1ccccc1)C(=O)O Bounds are passed on as bounds.

Data set [1] has as its system visceral pain induced by intraperitoneal injection of acetic acid solution in mice. Description: Acetic acid writhing visceral pain model. The class given is in vivo, mouse. On the procedure: The mice were placed in a transparent polymethyl methacry late box (20×20×30 cm) and adapted to the environment for 10-15 min; after the adaptation, compound 9 was administered intrathecally, intraperitoneally or subcutaneously to the mice. After 5 min, the mice were intraperitoneally injected with 10 ml/kg of 0.6% acetic acid solution, 5 min. after the intraperitoneal injection of acetic acid solution, the writhing response of the mice was recorded for 10 min. The mice developed characteristic reactions such as twisting of the trunk, concave in the abdomen, elevation of the buttocks and extension of the hind limbs, which were recorded as a writhing reaction.
The experimental data was expressed by MPE (maximum possible effect), MPE (%)=100×[(the number of writhing bodies in the physiological saline group− the number of writhing bodies in the drug group)/the number of writhing bodies in the physiological saline group]. The relevant MPE data were expressed as mean±standard error (Means±S.E.M.), the data for differences between groups treated with different drug concentrations were analyzed by one-way ANOVA (Bonferroni test in one-way ANOVA) for statistics and analysis, ***P<0.001 represents that there was a significant difference between the MPE value of the drug-treated group and that of the saline group.

Data set [2] concerns gastrointestinal movement of male mice of Kunming strain. Put plainly: Gastrointestinal movement in vivo (activated carbon suspension). Set-up: species or system mouse. Here is the method: Male mice of Kunming strain, weighing 26±2 g. The commonly used toner detection method was used in the detection of astrointestinal movement in vivo. The specific experimental procedure was: before the gastrointestinal movement experiment, the mice were fasted for 16 hours (free drinking during fasting), then the drug was injected through spinal cord or subcutaneously, and after 15 minutes, the activated carbon suspension prepared in advance (a physiological saline suspension containing 5% of activated carbon and 10% gum arabic) was orally perfused into the stomach in a volume of 0.1 ml per 10 g of body weight. After 30 minutes from the perfusion of activated carbon suspension, the animals were sacrificed by cervical dislocation, and then the small intestine of the animal from the pylorus to the cecum was carefully taken out. The total lengths of the small intestine from the pylorus to the cecum and the furthest distance from which the activated carbon suspension moves were measured.
Gastrointestinal movement test results were evaluated by a percentage of gastrointestinal movement, and the percentage of gastrointestinal movement per mouse was calculated by dividing the moving distance of the activated carbon suspension by the total length of the small intestine. The relevant data were expressed as mean of the percentage of gastrointestinal movement±standard error (Means±S.E.M.), the data for differences between groups treated with different drug concentrations were analyzed by one-way ANOVA (Dunnett test in one-way ANOVA) for statistics and analysis, ***P<0.001 represented that there was a significant difference between the percentage of gastrointestinal movement of the drug-treated group and that of the saline group.

The subject of data set [3] is CFA-induced inflammatory pain in mouse. Description: Analgesic tolerance and cross-tolerance in CFA-induced inflammatory pain. The class given is in vivo. On the procedure:
CFA-induced inflammatory pain in mouse was detected by an electronic Von Frey tenderness instrument, and the basal pain threshold of normal mice was Firstly determined. Then […] of CFA solution was injected subcutaneously into the mouse paw. After 4 days, the mechanical pain sensitivity value of the injected paw of the mouse was measured. And then compound 9 or morphine was injected for 6 consecutive days (lateral ventricle) or 7 consecutive days (subcutaneously), and the mice in morphine group were given compound 9 on day 7 (lateral ventricle) or day 8 (subcutaneous). The mechanical pain thresholds at different time points after administration were recorded.
The experimental data were expressed as mean± standard error (Means±S.E.M.). Data for differences between groups treated with the same drug were analyzed by one-way ANOVA (Tukey HSD test of one-way ANOVA) for statistics and analysis, *P<0.05. **P<0.005, ***P<0.001 indicates a significant difference between the mechanical pain threshold of the drug-treated group and the pain threshold after the first day of administration.

The subject of another data set is body temperature of mice. Put plainly: Body temperature of mice (rectal temperature). The class given is in vivo. The conditions noted are these: mouse, intrathecal; doses 100, 300, 500 pmol. Here is the method:
Mice were fixed in the manner described in Rosow et al. (1980). The ambient temperature was controlled at 21±0.5° C. and the experiment was carried out between 10 am and 2 pm. A temperature sensor attached to the biofunctional test BL-420F system was inserted into the rectum of the mouse in a depth of 2.5 cm to record the rectal temperature. The body temperatures before the intrathecal administration and at 10, 20, 30, 40, 50 and 60 minutes after administration were recorded.
The experiment results of regulation on the mouse body temperature were expressed as the difference between the basal body temperature and the body temperature after administration. The relevant data were expressed as mean+standard error (Means±S.E.M.). Differences between groups treated with different drug concentrations were analyzed by one-way ANOVA (Bonfenoni test in one-way ANOVA) for data statistics and analysis.

For data set [4], the system named is CCI-induced neuralgia in mouse. Description: Analgesic tolerance and cross-tolerance in CCI-induced neuralgia. The class given is in vivo. Here is the method: CCI-induced neuralgia in mouse was detected using a PL-200 thermal tingling instrument and an electronic Von Frey tenderness instrument. The thermal pain threshold of one group of normal mice and the mechanical pain threshold of another group of normal mice were first determined. The mice were then anesthetized with sodium pentobarbital 80 mg/kg mouse body weight) and the mice were fixed in the prone position. The right sciatic nerve was exposed and 3 mild ligation rings were made around the sciatic nerve using a 4-0 chromic catgut, 1 mm intervals. The ligation intensity is preferably a slight tremor in the right hind leg. On the 10th day after surgery, the thermal pain sensitivity value and mechanical pain sensitivity value of the right hind paw of the two groups of mice were determined. Compound 9 or morphine was then administered subcutaneously for seven consecutive days, and compound 9 was given to mice in the morphine group on day 8. The thermal tingling and mechanical pain thresholds at different time points after administration were recorded.
The experimental data were expressed as mean±standard error (Means±S.E.M.). Data for differences between groups treated with the same drug were analyzed by one-way ANOVA (Tukey HSD test of one-way ANOVA) for statistics and analysis, *P<0.05. **P<0.01, ***P<0.001 indicates a significant difference between the pain threshold of the drug-treated group and the pain threshold after the First day of administration.

Setting [5] is: subcutaneous, seven consecutive days.

Consider `C[C@@H](NC(=O)[C@@H](N)Cc1ccc(O)cc1)C(=O)NCC(=O)N(C)[C@@H](Cc1ccccc1)C(=O)NCC(=O)N1CCC[C@H]1C(=O)N[C@@H](CCC(N)=O)C(=O)N[C@@H](CCCNC(=N)N)C(=O)N[C@@H](Cc1ccccc1)C(N)=O` [Compound 9, Tyr-D-Ala-Gly-NMe-Phe-Gly-Pro-Gln-Arg-Phe-NH2] (H-Y[dA]G[NMeF]GPQRF-NH2), for which the “ED50 value (95% confidence interval)” value is 0.721 (0.594 to 0.875) mg/kg in data set [1] (intraperitoneal (i.p.)), 0.657 (0.595 to 0.727) pmol in data set [1] (intrathecal (i.t.)) and 0.789 (0.702 to 0.887) mg/kg in data set [1] (subcutaneous (s.c.)). For the same compound, the “percentage of gastrointestinal movement” value in data set [2] (10 mg/kg (compound 9 subcutaneous; morphine positive control)) amounted to 37.10%; in data set [2] (intrathecal injection, 100 pmol), 45.71%; in data set [2] (intrathecal injection, 300 pmol) it was 31.40%; in data set [2] (intrathecal injection, 500 pmol) it was 21.67%; in data set [2] (subcutaneous, 1 mg/kg), 47.28%; in data set [2] (subcutaneous, 30 mg/kg) it was 33.12%. Moreover, the “percentage of gastrointestinal movement” value in data set [2] (subcutaneous, 100 mg/kg) is 24.14%. In data set [2] (intrathecal injection), the “dose with significant inhibitory effect on gastrointestinal movement” value is given as no less than 300 pmol. Further, the “analgesic tolerance on continuous injection” value in data set [3] (mechanical pain, lateral ventricle 6 days or subcutaneous 7 days) is “not significantly different from that of the first day”. In addition, the “cross-tolerance between compound 9 and morphine” value in data set [3] (morphine-tolerant mice given compound 9 on day 7 (lateral ventricle) or day 8 (subcutaneous)) and in data set [4] (morphine-tolerant mice given compound 9 s.c. on day 8) was “no cross-tolerance” throughout. The “dose producing a significant effect of lowering body temperature” value in the data set with body temperature of mice came out at 500 pmol. Further, the “analgesic tolerance on continuous injection, mechanical pain sensitivity” value in data set [4] (setting [5]) was “not significantly different from that obtained in the first day”. Further, the “analgesic tolerance on continuous injection, thermal sensitivity pain” value in data set [4] (setting [5]) was “not significantly different from that obtained in the first day”.
